{"source": "PubChem BioAssay (NCI)", "assay_in_all_cases": "growth of human tumour cells (NCI), 48 h", "key": {"COLO 205 colon": {"system": "COLO 205 colon"}, "A498 renal": {"system": "A498 renal"}, "RXF 393 renal": {"system": "RXF 393 renal"}, "MCF7 breast": {"system": "MCF7 breast"}, "NCI-H460 lung": {"system": "NCI-H460 lung"}, "HCT-116 colon": {"system": "HCT-116 colon"}, "M14 melanoma": {"system": "M14 melanoma"}, "UO-31 renal": {"system": "UO-31 renal"}, "DU-145 prostate": {"system": "DU-145 prostate"}, "CCRF-CEM leukemia": {"system": "CCRF-CEM leukemia"}, "BT-549 breast": {"system": "BT-549 breast"}, "HL-60(TB) leukemia": {"system": "HL-60(TB) leukemia"}, "EKVX NSCLC": {"system": "EKVX NSCLC"}, "HCC-2998 colon": {"system": "HCC-2998 colon"}, "MOLT-4 leukemia": {"system": "MOLT-4 leukemia"}, "TK-10 renal": {"system": "TK-10 renal"}, "MDA-N": {"system": "MDA-N"}, "LOX IMVI melanoma": {"system": "LOX IMVI melanoma"}, "ACHN renal": {"system": "ACHN renal"}, "NCI-H226 lung": {"system": "NCI-H226 lung"}, "UACC-257 melanoma": {"system": "UACC-257 melanoma"}, "OVCAR-4 ovarian": {"system": "OVCAR-4 ovarian"}, "SK-MEL-5 melanoma": {"system": "SK-MEL-5 melanoma"}, "SNB-75 CNS": {"system": "SNB-75 CNS"}, "HOP-62 NSCLC": {"system": "HOP-62 NSCLC"}, "HT29 colon": {"system": "HT29 colon"}, "SK-MEL-2 melanoma": {"system": "SK-MEL-2 melanoma"}, "HCT-15 colon": {"system": "HCT-15 colon"}, "NCI-H522 lung": {"system": "NCI-H522 lung"}, "SR leukemia": {"system": "SR leukemia"}, "CAKI-1 renal": {"system": "CAKI-1 renal"}, "OVCAR-8 ovarian": {"system": "OVCAR-8 ovarian"}, "OVCAR-3 ovarian": {"system": "OVCAR-3 ovarian"}, "KM12 colon": {"system": "KM12 colon"}, "T-47D breast": {"system": "T-47D breast"}, "K-562 leukemia": {"system": "K-562 leukemia"}, "SK-OV-3 ovarian": {"system": "SK-OV-3 ovarian"}, "HOP-92 NSCLC": {"system": "HOP-92 NSCLC"}, "HS 578T breast": {"system": "HS 578T breast"}, "786-0 renal": {"system": "786-0 renal"}, "PC-3 prostate": {"system": "PC-3 prostate"}, "UACC-62 melanoma": {"system": "UACC-62 melanoma"}, "RPMI-8226 leukemia": {"system": "RPMI-8226 leukemia"}, "MDA-MB-231 breast": {"system": "MDA-MB-231 breast"}, "IGROV1 ovarian": {"system": "IGROV1 ovarian"}, "U251 CNS": {"system": "U251 CNS"}, "SF-295 CNS": {"system": "SF-295 CNS"}, "SNB-19 CNS": {"system": "SNB-19 CNS"}, "SK-MEL-28 melanoma": {"system": "SK-MEL-28 melanoma"}, "A549 NSCLC": {"system": "A549 NSCLC"}, "SN12C renal": {"system": "SN12C renal"}, "SW-620 colon": {"system": "SW-620 colon"}, "SF-268 CNS": {"system": "SF-268 CNS"}, "MDA-MB-435": {"system": "MDA-MB-435"}, "SF-539 CNS": {"system": "SF-539 CNS"}, "OVCAR-5 ovarian": {"system": "OVCAR-5 ovarian"}, "NCI-H23 lung": {"system": "NCI-H23 lung"}}, "note": "Where “and” joins values, the source holds several entries; their conditions need not be identical. Identical values can stand only once.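 Assay format: 96-well plates, 48-hour exposure. The concentration for 50% growth inhibition is given as GI50. TGI: total growth inhibition.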", "data": [{"compound": "O=[N+]([O-])c1ccc(N=Nc2c(O)ccc3ccccc23)cc1", "values": [{"measurement": "TGI", "setting": "COLO 205 colon", "value": "> 100", "unit": "µM"}, {"measurement": "TGI", "setting": "A498 renal", "value": "> 100", "unit": "µM"}, {"measurement": "GI50", "setting": "RXF 393 renal", "value": "38 µM and > 100 µM"}, {"measurement": "TGI", "setting": "RXF 393 renal", "value": "> 100", "unit": "µM"}, {"measurement": "TGI", "setting": "MCF7 breast", "value": "> 100", "unit": "µM"}, {"measurement": "TGI", "setting": "NCI-H460 lung", "value": "> 100", "unit": "µM"}, {"measurement": "TGI", "setting": "HCT-116 colon", "value": "> 100", "unit": "µM"}, {"measurement": "GI50", "setting": "M14 melanoma", "value": "43.6 µM and > 100 µM"}, {"measurement": "TGI", "setting": "M14 melanoma", "value": "> 100", "unit": "µM"}, {"measurement": "TGI", "setting": "UO-31 renal", "value": "> 100", "unit": "µM"}, {"measurement": "TGI", "setting": "DU-145 prostate", "value": "> 100", "unit": "µM"}, {"measurement": "GI50", "setting": "CCRF-CEM leukemia", "value": "28.4 µM and > 100 µM"}, {"measurement": "TGI", "setting": "CCRF-CEM leukemia", "value": "> 100", "unit": "µM"}, {"measurement": "GI50", "setting": "BT-549 breast", "value": "30.3 µM and > 100 µM"}, {"measurement": "TGI", "setting": "BT-549 breast", "value": "96.1 µM and > 100 µM"}, {"measurement": "GI50", "setting": "HL-60(TB) leukemia", "value": "38.4 µM and > 100 µM"}, {"measurement": "TGI", "setting": "HL-60(TB) leukemia", "value": "> 100", "unit": "µM"}, {"measurement": "GI50", "setting": "EKVX NSCLC", "value": "28 µM and > 100 µM"}, {"measurement": "TGI", "setting": "EKVX NSCLC", "value": "> 100", "unit": "µM"}, {"measurement": "TGI", "setting": "HCC-2998 colon", "value": "> 100", "unit": "µM"}, {"measurement": "TGI", "setting": "MOLT-4 leukemia", "value": "> 100", "unit": "µM"}, {"measurement": "GI50", "setting": "TK-10 renal", "value": "28 µM and > 100 µM"}, {"measurement": "TGI", "setting": "TK-10 renal", "value": "> 100", "unit": "µM"}, {"measurement": "TGI", "setting": "MDA-N", "value": "> 100", "unit": "µM"}, {"measurement": "TGI", "setting": "LOX IMVI melanoma", "value": "> 100", "unit": "µM"}, {"measurement": "GI50", "setting": "ACHN renal", "value": "31.3 µM and > 100 µM"}, {"measurement": "TGI", "setting": "ACHN renal", "value": "> 100", "unit": "µM"}, {"measurement": "GI50", "setting": "NCI-H226 lung", "value": "35.4 µM and > 100 µM"}, {"measurement": "TGI", "setting": "NCI-H226 lung", "value": "> 100", "unit": "µM"}, {"measurement": "TGI", "setting": "UACC-257 melanoma", "value": "> 100", "unit": "µM"}, {"measurement": "GI50", "setting": "OVCAR-4 ovarian", "value": "24.3 µM and > 100 µM"}, {"measurement": "TGI", "setting": "OVCAR-4 ovarian", "value": "65.7 µM and > 100 µM"}, {"measurement": "TGI", "setting": "SK-MEL-5 melanoma", "value": "> 100", "unit": "µM"}, {"measurement": "GI50", "setting": "SNB-75 CNS", "value": "39.3 µM and > 100 µM"}, {"measurement": "TGI", "setting": "SNB-75 CNS", "value": "> 100", "unit": "µM"}, {"measurement": "GI50", "setting": "HOP-62 NSCLC", "value": "14.5 µM and > 100 µM"}, {"measurement": "TGI", "setting": "HOP-62 NSCLC", "value": "37.4 µM and > 100 µM"}, {"measurement": "GI50", "setting": "HT29 colon", "value": "35.8 µM and > 100 µM"}, {"measurement": "TGI", "setting": "HT29 colon", "value": "> 100", "unit": "µM"}, {"measurement": "TGI", "setting": "SK-MEL-2 melanoma", "value": "> 100", "unit": "µM"}, {"measurement": "TGI", "setting": "HCT-15 colon", "value": "> 100", "unit": "µM"}, {"measurement": "GI50", "setting": "NCI-H522 lung", "value": 35.9, "unit": "µM"}, {"measurement": "TGI", "setting": "NCI-H522 lung", "value": "> 100", "unit": "µM"}, {"measurement": "TGI", "setting": "SR leukemia", "value": "> 100", "unit": "µM"}, {"measurement": "TGI", "setting": "CAKI-1 renal", "value": "> 100", "unit": "µM"}, {"measurement": "GI50", "setting": "OVCAR-8 ovarian", "value": "> 100", "unit": "µM"}, {"measurement": "TGI", "setting": "OVCAR-8 ovarian", "value": "> 100", "unit": "µM"}, {"measurement": "TGI", "setting": "OVCAR-3 ovarian", "value": "> 100", "unit": "µM"}, {"measurement": "GI50", "setting": "KM12 colon", "value": "19.7 µM and > 100 µM"}, {"measurement": "TGI", "setting": "KM12 colon", "value": "> 100", "unit": "µM"}, {"measurement": "TGI", "setting": "T-47D breast", "value": "> 100", "unit": "µM"}, {"measurement": "TGI", "setting": "K-562 leukemia", "value": "> 100", "unit": "µM"}, {"measurement": "GI50", "setting": "SK-OV-3 ovarian", "value": "20.2 µM and > 100 µM"}, {"measurement": "TGI", "setting": "SK-OV-3 ovarian", "value": "> 100", "unit": "µM"}, {"measurement": "GI50", "setting": "HOP-92 NSCLC", "value": "32.5 µM and > 100 µM"}, {"measurement": "TGI", "setting": "HOP-92 NSCLC", "value": "> 100", "unit": "µM"}, {"measurement": "GI50", "setting": "HS 578T breast", "value": "18.3 µM and > 100 µM"}, {"measurement": "TGI", "setting": "HS 578T breast", "value": "46.6 µM and > 100 µM"}, {"measurement": "TGI", "setting": "786-0 renal", "value": "> 100", "unit": "µM"}, {"measurement": "TGI", "setting": "PC-3 prostate", "value": "> 100", "unit": "µM"}, {"measurement": "GI50", "setting": "UACC-62 melanoma", "value": "18.3 µM and > 100 µM"}, {"measurement": "TGI", "setting": "UACC-62 melanoma", "value": "> 100", "unit": "µM"}, {"measurement": "TGI", "setting": "RPMI-8226 leukemia", "value": "> 100", "unit": "µM"}, {"measurement": "TGI", "setting": "MDA-MB-231 breast", "value": "> 100", "unit": "µM"}, {"measurement": "TGI", "setting": "IGROV1 ovarian", "value": "> 100", "unit": "µM"}, {"measurement": "GI50", "setting": "U251 CNS", "value": "22.5 µM and > 100 µM"}, {"measurement": "TGI", "setting": "U251 CNS", "value": "67 µM and > 100 µM"}, {"measurement": "GI50", "setting": "SF-295 CNS", "value": "29.8 µM and > 100 µM"}, {"measurement": "TGI", "setting": "SF-295 CNS", "value": "> 100", "unit": "µM"}, {"measurement": "TGI", "setting": "SNB-19 CNS", "value": "> 100", "unit": "µM"}, {"measurement": "TGI", "setting": "SK-MEL-28 melanoma", "value": "> 100", "unit": "µM"}, {"measurement": "GI50", "setting": "A549 NSCLC", "value": "28.2 µM and > 100 µM"}, {"measurement": "TGI", "setting": "A549 NSCLC", "value": "> 100", "unit": "µM"}, {"measurement": "TGI", "setting": "SN12C renal", "value": "> 100", "unit": "µM"}, {"measurement": "TGI", "setting": "SW-620 colon", "value": "> 100", "unit": "µM"}, {"measurement": "GI50", "setting": "SF-268 CNS", "value": "35.9 µM and > 100 µM"}, {"measurement": "TGI", "setting": "SF-268 CNS", "value": "> 100", "unit": "µM"}, {"measurement": "TGI", "setting": "MDA-MB-435", "value": "> 100", "unit": "µM"}, {"measurement": "TGI", "setting": "SF-539 CNS", "value": "> 100", "unit": "µM"}, {"measurement": "TGI", "setting": "OVCAR-5 ovarian", "value": "> 100", "unit": "µM"}, {"measurement": "GI50", "setting": "NCI-H23 lung", "value": "42.9 µM and > 100 µM"}, {"measurement": "TGI", "setting": "NCI-H23 lung", "value": "> 100", "unit": "µM"}]}]}
